Experiments:
[1] = test system: THP-1 cells; assay: Compound mediated uptake of TNFα-pHrodo in THP-1 cells (flow cytometry); assay type: cell-based; set-up: key to Uptake in THP1 cells (run) 2 / Uptake in THP1 cells (run) 3 / Uptake in THP1 cells (run) 4: + = ΔMFI less than that of I-17; ++ = ΔMFI ≈ to that of I-17; +++ = ΔMFI greater than that of I-17; details: ΔMFI compared with I-17, uptake at 10 μM
Description: THP-1 cells, a monocytic leukemia cell line that endogenously express folate receptor beta, were used as a model system to measure example compound stimulated uptake of in-house produced TNFα conjugated to the pH sensitive fluorescent dye pHrodo green (ThermoFisher Scientific #P35369).
THP-1 cells were maintained in RPMI (Gibco #61870143) with 10% v/v FBS (VWR #89510-188) with 2 mM L-alanyl-L-glutamine dipeptide, 100 units/ml penicillin and 100 μg/ml streptomycin (Gibco #15140148). Cells were pelleted, resuspended in folate-free RPMI (Gibco #27016021) and seeded at 50,000 cells per well of a 96 well plate. Example compound was added to each well as a log 2 dilution series ranging from 20 μM to 125 nM final concentration. Cells were incubated for 24 hrs and washed/resuspended in phosphate buffered saline (pH 7.4) with 1% w/v BSA. Uptake was measured using a Novocyte Advanteon Flow Cytometer (Agilent Technologies) with the […] and FITC detection configuration.

[2] = test system: TNFα trimer complex to folate receptor (FOLR2); assay: SPR co-engagement of compound-TNFα trimer complex to folate receptor; details: TNFα + 10 nM compound binding FOLR2
Description: The active (Flow cell 2) surfaces of a Cytiva CM5 Series S Sensor Chip functionalized with FOLR2 as described in Example 58. Example compounds were diluted to 10 nM with 50 and 100 nM TNFα single chain trimer or 150 nM and 300 nM TNFα native monomer in running buffer (10 mM HEPES, 150 mM NaCl, 0.05% T20, pH 7.5, 2% DMSO), allowed to incubate for 5 hours at 25° C. and then flowed over the active and reference surfaces for 110 s, and then allowed to dissociate in running buffer for 600 s, at a flow rate of 30 μL/min. The FOLR2 immobilized active surface and the reference surface were regenerated with a 30 s pulse of 4M MgCl2 at 30 μL/min then allowed to equilibrate 240 s. Sensorgrams were solvent corrected, double-referenced, and the data fitted and analyzed in Biacore Insight Evaluation Software Version 3.0.11.15423.

[3] = target: FOLR2 (Homo sapiens (Human), UniProt P14207); assay: SPR binding kinetics of compounds to folate receptor (FOLR2 immobilized on CM5 chip)
FOLR2, sequence (P14207 17-255): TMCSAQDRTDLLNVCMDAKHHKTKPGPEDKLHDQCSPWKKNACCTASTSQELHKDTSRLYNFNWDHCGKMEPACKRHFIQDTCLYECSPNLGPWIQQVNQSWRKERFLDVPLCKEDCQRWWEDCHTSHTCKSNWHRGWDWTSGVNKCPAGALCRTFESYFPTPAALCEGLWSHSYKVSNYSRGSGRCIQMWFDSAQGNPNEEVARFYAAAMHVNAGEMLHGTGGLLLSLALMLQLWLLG
Description: A Biacore 8K+ was used to measure the association and dissociation rates of example compounds to FOLR2 (Acro Biosystems, Cat: F02-H5223-100 μg). Briefly, FOLR2 was reconstituted according to the manufacture's instructions to 200 μg/mL. Both the active and reference surfaces of a Cytiva CM5 Series S Sensor Chip were activated with a 1:1 mixture of 400 mM EDC and 100 mM NHS for 420 s at 10 μL/min. 25 μg/mL FOLR2 diluted in Sodium Acetate pH 5.5 was injected on the active channel (Flow Cell 2) for 420 s at 10p/min. Both the reference and active surfaces were then capped with 1M ethanolamine, pH 8.5 for 420 s, achieving an immobilization level of ˜4200 RU. Example compounds were serially diluted 1:1 in running buffer (10 mM HEPES, 150 mM NaCl, 0.05% T20, pH 7.5, 2% DMSO) from 100 nM to 3.125 nM and flowed over the active and reference surfaces for 120 s, and then allowed to dissociate in running buffer for 600 s, at 30 uL/min. The FOLR2 immobilized active surface and the reference surface were regenerated with a 30 s pulse of Sodium Acetate pH 5.5 at 30 μL/min. Sensorgrams were solvent corrected, double-referenced, and the data fitted and analyzed in Biacore Insight Evaluation Software Version 3.0.11.15423.

[4] = target: TNFα trimer (Homo sapiens, UniProt P01375); assay: SPR binding kinetics of compounds to TNFα trimer; details: class symbols
TNFα trimer, sequence (P01375 77-233 limits assumed): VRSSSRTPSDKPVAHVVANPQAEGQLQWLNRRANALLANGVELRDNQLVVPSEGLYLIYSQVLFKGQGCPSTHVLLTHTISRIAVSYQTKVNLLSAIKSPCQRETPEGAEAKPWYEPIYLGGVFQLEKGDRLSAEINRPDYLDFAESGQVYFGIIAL
Description: Streptavidin 100 μg/mL Streptavidin (Invitrogen Cat #: 434302) diluted in 10 mM sodium acetate, pH 4.5) was immobilized to both the reference and active surfaces as described in Example 51. The surfaces were conditioned with three injections of running Buffer (10 mM HEPES, 150 mMNaCl, 0.05% T20, pH 7.5, 2% DMSO) at a flow rate of 10 μL/min, Contact time: 60 s. Flow rate: 10 μL/min. The active surface was treated with biotinylated linked TNFα trimer 20 μg/mL diluted in running buffer at a flow rate of 5 μL/min contact time: 600 s, yielding a final response of ˜3000 RU. Example compounds were then serially diluted 1:1 in running buffer (10 mM HEPES, 150 mM NaCl, 0.05% T20, pH 7.5, 2% DMSO) from 30 uM to 937.5 nM and flowed over the active and reference surfaces from lowest concentration to greatest concentration in the single-cycle kinetics format, and then allowed to dissociate in running buffer for 7200 s, at 30 μL/min. Sensorgrams were solvent corrected, double-referenced, and the data fitted and analyzed in Biacore Insight Evaluation Software Version 3.0.11.15423.

## Cc1nc2cc(F)c(-c3cnc(OCCCCCn4cc(CNC(=O)CC[C@H](NC(=O)c5ccc(NCc6cnc7nc(N)nc(O)c7n6)cc5)C(=O)O)nn4)nc3)nc2c(N[C@H](C)c2cc(C#N)ccc2F)c1Cl [Compound I-14, N2-(4-(((2-amino-4-hydroxypteridin-6-yl)methyl)amino)benzoyl)-N5-((1-(5-((5-(7-chloro-8-(((R)-1-(5-cyano-2-fluorophenyl)ethyl)amino)-3-fluoro-6-methyl-1,5-naphthyridin-2-yl)pyrimidin-2-yl)oxy)pentyl)-1H-1,2,3-triazol-4-yl)methyl)-L-glutamine]
[1]
  Uptake in THP1 cells (run) 2: +
  Uptake in THP1 cells (run) 3: ++
[2]
  co-engagement / complex formation observed on SPR: complex formation observed
[3]
  Kd: 0.2 nM
[4]
  Kd: < 100 nM

## Cc1nc2cc(F)c(-c3cnc(OCCCCCn4cc(COCCOCCOCCOCCOCCOCCNC(=O)CC[C@H](NC(=O)c5ccc(NCc6cnc7nc(N)nc(O)c7n6)cc5)C(=O)O)nn4)nc3)nc2c(N[C@H](C)c2cc(C#N)ccc2F)c1Cl [Compound I-18, (S)-24-(4-(((2-amino-4-hydroxypteridin-6-yl)methyl)amino)benzamido)-1-(1-(5-((5-(7-chloro-8-((I-1-(5-cyano-2-fluorophenyl)ethyl)amino)-3-fluoro-6-methyl-1,5-naphthyridin-2-yl)pyrimidin-2-yl)oxy)pentyl)-1H-1,2,3-triazol-4-yl)-21-oxo-2,5,8,11,14,17-hexaoxa-20-azapentacosan-25-oic acid]
[1]
  Uptake in THP1 cells (run) 2: +++
  Uptake in THP1 cells (run) 3: ++
  Uptake in THP1 cells (run) 4: +++
[2]
  co-engagement / complex formation observed on SPR: complex formation observed
[3]
  Kd: 0.4 nM
[4]
  Kd: < 100 nM

## Cc1nc2cc(F)c(-c3cnc(OCCCCCn4cc(COCCOCCOCCOCCOCCOCCOCCOCCOCCOCCNC(=O)CC[C@H](NC(=O)c5ccc(NCc6cnc7nc(N)nc(O)c7n6)cc5)C(=O)O)nn4)nc3)nc2c(N[C@H](C)c2cc(C#N)ccc2F)c1Cl [Compound I-20, (S)-36-(4-(((2-amino-4-hydroxypteridin-6-yl)methyl)amino)benzamido)-1-(1-(5-((5-(7-chloro-8-(((R)-1-(5-cyano-2-fluorophenyl)ethyl)amino)-3-fluoro-6-methyl-1,5-naphthyridin-2-yl)pyrimidin-2-yl)oxy)pentyl)-1H-1,2,3-triazol-4-yl)-33-oxo-2,5,8,11,14,17,20,23,26,29-decaoxa-32-azaheptatriacontan-37-oic acid]
[1]
  Uptake in THP1 cells (run) 2: +++
  Uptake in THP1 cells (run) 3: +
  Uptake in THP1 cells (run) 4: ++
[2]
  co-engagement / complex formation observed on SPR: complex formation observed
[3]
  Kd: 0.2 nM
[4]
  Kd: < 1000 nM

## Cc1nc2cc(F)c(-c3cnc(OCCCCCn4cc(COCCNC(=O)CC[C@H](NC(=O)c5ccc(NCc6cnc7nc(N)nc(O)c7n6)cc5)C(=O)O)nn4)nc3)nc2c(N[C@H](C)c2cc(C#N)ccc2F)c1Cl [Compound I-15, N2-(4-(((2-amino-4-hydroxypteridin-6-yl)methyl)amino)benzoyl)-N5-(2-((1-(5-((5-(7-chloro-8-((I-1-(5-cyano-2-fluorophenyl)ethyl)amino)-3-fluoro-6-methyl-1,5-naphthyridin-2-yl)pyrimidin-2-yl)oxy)pentyl)-1H-1,2,3-triazol 4-yl)methoxy)ethyl)-L-glutamine]
[1]
  Uptake in THP1 cells (run) 3: +++
  Uptake in THP1 cells (run) 4: ++
[2]
  co-engagement / complex formation observed on SPR: complex formation observed
[3]
  Kd: 0.3 nM
[4]
  Kd: < 100 nM

## Cc1nc2ccc(-c3ccc(N4CCN(CCOCCn5cc(COCCOCCOCCOCCNC(=O)CC[C@H](NC(=O)c6ccc(NCc7cnc8nc(N)nc(O)c8n7)cc6)C(=O)O)nn5)CC4)nc3)cn2c1Cc1ccccc1OC(F)F (racemic) [Compound I-22, rac-(R)-18-(4-(((2-amino-4-hydroxypteridin-6-yl)methyl)amino)benzamido)-1-(1-(2-(2-(4-(5-(3-(2-(difluoromethoxy)benzyl)-2-methylimidazo[1,2-a]pyridin-6-yl)pyridin-2-yl)piperazin-1-yl)ethoxy)ethyl)-1H-1,2,3-triazol-4-yl)-15-oxo-2,5,8,11-tetraoxa-14-azanonadecan-19-oic acid]
[1]
  Uptake in THP1 cells (run) 2: +
  Uptake in THP1 cells (run) 3: +
  Uptake in THP1 cells (run) 4: +
[2]
  co-engagement / complex formation observed on SPR: complex formation observed
[3]
  Kd: 0.3 nM
[4]
  Kd: < 5000 nM

From patent US20250127913A1, “BIFUNCTIONAL FOLATE RECEPTOR BINDING COMPOUNDS” (LYCIA THERAPEUTICS, INC., priority 2021, published 2025)
